This note sets out measurements from patent US20250162989A1, “USP30 INHIBITORS AND USES THEREOF” (Vincere Biosciences, Inc., priority 2021, published 2025).

Data set [1] concerns the target recombinant USP30 (amino acids 57-517 of the human sequence) (Homo sapiens (Human), UniProt Q70CQ3). Put plainly: In vitro USP30 biochemical assay (Ubiquitin-Rhodamine substrate). The settings on record: fluorescence. The protocol:
In vitro biochemical assay to establish the potency of compounds for USP30 inhibition: a 384-well plate assay using a fluorophore tagged substrate of USP30 was used for in vitro screening of compounds. Each compound was tested at
10 different concentrations (0.5 to 10,000 nM) in duplicate wells. […] Data were analyzed using Graph Pad Prism software with a four-parameter (floating slope) fit to log concentration data to determine IC50s.

A short description of data set [2]: Kinetic solubility. Type of data set: physicochemical. Conditions: 100 mM PBS, 1 hour at room temperature. The protocol:
To 396 μL of a 100 mM phosphate buffered saline (PBS) was added 4 μL of a 10 mM stock solution of the compound. The mixture was shaken at 1000 rpm for 1 hour at room temperature. […] Compound concentration was calculated by comparison to a standard calibration curve. The assay was done in duplicate. The results are reported in μMol.

The nature of data set [3]: Metabolic stability and intrinsic clearance in liver microsomes (human). Type of data set: in vitro ADME. The settings on record: 37° C. The protocol: (§1) Test compounds were incubated with microsomes supplemented with co-factors at 37° C. Typical conditions were: compound concentration of 1 μM and 5 sampling time-points (0, 15, 30, 45 and 60 minutes), in duplicates. At each time-point, the reactions were terminated by the addition of organic solvent. The samples were centrifuged and the parent compound concentration was evaluated by LC-MS/MS measurements.

Data set [4] in a line: Metabolic stability and intrinsic clearance in liver microsomes (rat). The data set is classed as in vitro ADME. The settings on record: 37° C. The protocol:
as §1
In general terms: Liver microsomes are a subcellular fraction often used to study metabolism.

The nature of data set [5]: Metabolic stability and intrinsic clearance in liver microsomes (mouse). Type of data set: in vitro ADME. Conditions: 37° C. The protocol:
as §1

Data set [6] has as its system Caco-2 cells. Put plainly: Caco-2 permeability screening assay. The data set is classed as in vitro ADME. Conditions: Caco-2, 10 μM, […] at 37° C. A general note: Caco-2 cells form a polarised layer with tight junctions and transporters.
Method: Caco-2 cells were used after a 21-day cell culture in 24-well Transwell plates. Test and reference compounds (Metoprolol, Enalapril and Erythromycin) were prepared in DMSO and added to either the apical or basolateral chambers of the transwell plate assembly at a concentration of 10 μM. Lucifer Yellow was added to the donor buffer in all wells to assess integrity of the cell layers by monitoring Lucifer Yellow permeation. As Lucifer Yellow (LY) cannot freely permeate lipophilic barriers, a high degree of LY transport indicates poor integrity of the cell layer. After 1.5 hrs incubation at 37° C., aliquots were taken from both apical (A) and basal (B) chambers and added to stop solution in a 96 well plate. Concentrations of compound in the samples were measured by LC-MS/MS. The Efflux ratios, as an indication of active efflux from the apical cell surface, were calculated using the ratio of Papp B>A/Papp A>B.
Data set [7] addresses USP30 (Homo sapiens (Human), UniProt Q70CQ3). In words: Dundee MALDI-TOF mass spectrometry assay (K48-linked diubiquitin cleavage). Type of data set: biochemical. The settings on record: USP30 25 ng/μl, K48-linked diubiquitin 5.6 μM.
Data set [8] has as its system Tom20 loss in differentiated RenCell VM. Put plainly: In-cell Tom20 loss assay. The data set is classed as cell-based. The settings on record: 20 h after compound addition. The protocol:
To evaluate Tom20 loss following treatment with compounds and/or antimycin/oligomycin, a 96-well plate assay was performed on differentiated RenCell VM. These were seeded into laminin-coated 96-well plates at 5000 cells/well in normal growth medium (ReNcell NSC maintenance medium+20 ng/ml FDF-2 and 20 ng/ml EGF). After 3 days, growth medium was replaced with differentiation medium (ReNCell NSC medium+0.1 mM dibutyryl cAMP and 2 ng/ml GDNF). On days 1 and 4 following addition of differentiation medium, the media was removed and replaced with fresh differentiation medium. […] After again washing with PBS, cells were imaged using GE INCell 6000 at 40× and quantified using HCA-based quantification algorithm of fluorescence density×area normalized to the number of nuclei.

[9] abbreviates: 1.5 nM recombinant USP30, 25 nM Ubiquitin-Rhodamine.
[10] abbreviates: […] recombinant USP30, 25 nM Ubiquitin-Rhodamine.

Structures are written as SMILES. Like-named read-outs stand apart in the source and are kept apart here.

Sequence of USP30 (Q70CQ3 whole entry): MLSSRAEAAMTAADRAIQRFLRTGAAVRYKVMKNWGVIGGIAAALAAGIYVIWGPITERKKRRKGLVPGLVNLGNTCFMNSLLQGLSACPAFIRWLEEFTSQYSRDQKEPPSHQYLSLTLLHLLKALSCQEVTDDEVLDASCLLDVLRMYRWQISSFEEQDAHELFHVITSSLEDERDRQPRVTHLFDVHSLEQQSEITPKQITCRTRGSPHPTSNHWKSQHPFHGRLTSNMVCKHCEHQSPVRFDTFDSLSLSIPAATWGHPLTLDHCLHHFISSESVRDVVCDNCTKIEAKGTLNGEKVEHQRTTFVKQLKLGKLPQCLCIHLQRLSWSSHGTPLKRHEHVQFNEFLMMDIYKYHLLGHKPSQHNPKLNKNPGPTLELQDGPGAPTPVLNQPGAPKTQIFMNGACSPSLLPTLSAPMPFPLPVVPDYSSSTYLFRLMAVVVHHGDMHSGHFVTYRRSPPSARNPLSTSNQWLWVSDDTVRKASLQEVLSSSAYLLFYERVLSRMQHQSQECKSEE
Sequence of recombinant USP30 (amino acids 57-517 of the human sequence) (Q70CQ3 57-517): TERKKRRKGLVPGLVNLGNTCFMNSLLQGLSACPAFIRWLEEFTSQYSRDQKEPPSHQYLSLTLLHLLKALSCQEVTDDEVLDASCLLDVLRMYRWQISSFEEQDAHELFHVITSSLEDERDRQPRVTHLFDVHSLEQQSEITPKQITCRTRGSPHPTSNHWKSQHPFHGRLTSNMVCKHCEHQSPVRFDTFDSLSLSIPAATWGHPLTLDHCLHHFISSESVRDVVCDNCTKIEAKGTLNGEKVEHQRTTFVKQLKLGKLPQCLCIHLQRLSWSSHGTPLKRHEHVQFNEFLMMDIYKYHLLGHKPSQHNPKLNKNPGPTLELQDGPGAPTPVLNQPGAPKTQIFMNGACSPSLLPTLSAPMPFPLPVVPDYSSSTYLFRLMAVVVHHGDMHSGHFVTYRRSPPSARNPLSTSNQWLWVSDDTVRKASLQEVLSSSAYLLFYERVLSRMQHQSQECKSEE

The term IC50 denotes the point on the concentration scale where inhibition reaches its midpoint. Regarding `CC(C)(CCO)NS(=O)(=O)c1ccc(NC(=O)[C@H](Cc2ccc(-c3ccccc3)cc2)NC(=O)c2ccc(F)cc2)cc1` [Compound I-59], the IC50 in data set [1] (setting [9]) was 0.05 to 1 µM. The “Kinetic Solubility (μMol)” value in data set [2] is “D (solubility of <1.0 μMol)”.
`CC(C)(C)NS(=O)(=O)c1ccc(NC(=O)[C@H](CC2CCCCC2)NC(=O)c2ccc(F)cc2)cc1` [Compound I-294]: the IC50 in data set [1] (setting [10]) was under 0.05 µM. Further, the “Kinetic Solubility (μMol)” value in data set [2] is “C (solubility ≥1.0 μMol and <50.0 μMol)”. In data set [3] (1 μM), the “Half-life in human microsomes” value was “D (half-life of <15 minutes)”. The “Half-life in rat microsomes” value in data set [4] (1 μM) is given as “D (half-life of <15 minutes)”. Moreover, the “Half-life in mouse microsomes” value in data set [5] (1 μM) is “D (half-life of <15 minutes)”. The “Efflux Ratio (Papp B>A/Papp A>B)” value in data set [6] was “B (efflux ratio >2 and ≤6)”. In data set [6] (apical to basolateral), the “Papp(A-B) (10 − 6, cm/sec)” value is 1.8 10 − 6, cm/sec.
In the case of `CC(C)CC[C@H](NC(=O)c1ccc(F)cc1)C(=O)Nc1ccc(S(=O)(=O)NC(C)(C)C)cc1` [Compound I-23], the IC50 in data set [1] (setting [10]) is under 0.05 µM. Moreover, in data set [2], the “Kinetic Solubility (μMol)” value is recorded as “D (solubility of <1.0 μMol)”.
As for `CCN1CCC(C[C@H](NC(=O)c2ccc(F)cc2)C(=O)Nc2ccc(S(=O)(=O)NC(C)(C)C)cc2)CC1` [Compound I-42], in data set [1] (setting [9]), the IC50 was 0.05 to 1 µM. The “Kinetic Solubility (μMol)” value in data set [2] was “A (solubility of ≥75.0 μMol)”.
Take `CC(C)(C)NS(=O)(=O)c1ccc(NC(=O)[C@H](CC2CCOCC2)NC(=O)c2ccc(F)cc2)cc1` [Compound I-1]: the values for the IC50 in data set [7] (read-out: IC50), in data set [1] (setting [10]) and in data set [8] were under 0.05 µM, under 0.05 µM and under 0.5 µM, respectively.
`CC(C)(C)NS(=O)(=O)c1ccc(NC(=O)[C@H](CC2CCNCC2)NC(=O)c2ccc(F)cn2)cc1` [Compound I-175, (S)—N-(1-((4-(N-(tert-butyl)sulfamoyl)phenyl)amino)-1-oxo-3-(piperidin-4-yl)propan-2-yl)-5-fluoropicolinamide]: the IC50 in data set [7] (read-out: USP30 IC50 μM (avg)) and in data set [1] (setting [10]) was under 0.05 µM throughout. Besides, in data set [2], the “Kinetic Solubility (μMol)” value is “A (solubility of ≥75.0 μMol)”.
For the molecule `CC(C)(C)NS(=O)(=O)c1ccc(NC(=O)[C@H](Cc2ccc(-c3ccccc3)cc2)NC(=O)c2ccc(F)cc2)cc1` [Compound I-60], in data set [1] (setting [9]), the IC50 was in the range of 0.05 to 1 µM. Besides, in data set [2], the “Kinetic Solubility (μMol)” value is on record as “D (solubility of <1.0 μMol)”.
As to `CN1CCC(C[C@H](NC(=O)c2ccc(F)cc2)C(=O)Nc2ccc(S(=O)(=O)NC(C)(C)C)nc2)CC1` [Compound I-78], the figures for the IC50 in data set [7] (read-out: USP30 IC50 μM (avg)) and in data set [1] (setting [9]) were under 0.05 µM and 0.05 to 1 µM, respectively. For the same molecule, the “Kinetic Solubility (μMol)” value in data set [2] is “A (solubility of ≥75.0 μMol)”.
The half-life is how long it takes for the measured level to halve. Read a high half-life as slow decline. For the molecule `COc1cc(NC(=O)[C@H](CC2CCOCC2)NC(=O)c2ccc(F)cc2)ccc1S(=O)(=O)NC1COC1` [Compound I-3], the IC50 in data set [1] (setting [9]) lay within 0.05 to 1 µM. For the same molecule, the “Kinetic Solubility (μMol)” value in data set [2] is “A (solubility of ≥75.0 μMol)”. Moreover, the half-life at 1 μM in data set [3] was 2 to 6 h; in data set [4], at least 6 h; in data set [5] it was 0.25 to 2 h.
Consider `CC(C)(CO)NS(=O)(=O)c1ccc(NC(=O)[C@@H](NC(=O)c2ccc(F)cc2)C(C)(C)c2ccccc2)cc1` [Compound I-62], for which the IC50 in data set [1] (setting [9]) fell in the range of 1 to 10 µM. The “Kinetic Solubility (μMol)” value in data set [2] was “C (solubility ≥1.0 μMol and <50.0 μMol)”.
As for `CC(C)C[C@H](NC(=O)c1ccc(F)cc1)C(=O)Nc1ccc(S(=O)(=O)NC(C)(C)CCO)cc1` [Compound I-20, (S)-4-fluoro-N-(1-((4-(N-(4-hydroxy-2-methylbutan-2-yl)sulfamoyl)phenyl)amino)-4-methyl-1-oxopentan-2-yl)benzamide], in data set [1] (setting [9]), the IC50 was 0.05 to 1 µM. For the same molecule, in data set [2], the “Kinetic Solubility (μMol)” value was “B (solubility of ≥50.0 μMol and <75.0 μMol)”.
`CC(C)(C)NS(=O)(=O)c1ccc(NC(=O)[C@@H](NC(=O)c2ccc(F)cc2)C(C)(C)c2ccccc2)cc1` [Compound I-61]: the IC50 in data set [1] (setting [9]) was in the range of 0.05 to 1 µM. Further, the “Kinetic Solubility (μMol)” value in data set [2] is recorded as “D (solubility of <1.0 μMol)”.
Consider `O=C(N[C@@H](Cc1ccccc1)C(=O)Nc1ccc(S(=O)(=O)NC2COC2)c(O)c1)c1ccc(F)cc1` [Compound I-66], for which the IC50 in data set [7] (read-out: IC50) was under 0.05 µM; in data set [1] (setting [9]), 0.05 to 1 µM. Further, in data set [2], the “Kinetic Solubility (μMol)” value was “B (solubility of ≥50.0 μMol and <75.0 μMol)”.
Turning to `CN1CCC(C[C@H](NC(=O)c2ccc(F)cc2)C(=O)Nc2ccc(S(=O)(=O)NC(C)(C)C)cc2)CC1` [Compound I-41], the IC50 in data set [1] (setting [9]) lay in the range of 0.05 to 1 µM. The “Kinetic Solubility (μMol)” value in data set [2] was “A (solubility of ≥75.0 μMol)”.
`CC(C)C[C@H](NC(=O)c1ccc(F)cc1)C(=O)Nc1ccc(S(=O)(=O)NC(C)(C)C)cc1` [Compound I-11]: the IC50 is under 0.05 µM in data set [1] (setting [10]) and under 0.5 µM in data set [8].
